The source of these data is patent US4791139A, “Diphenyl ether derivatives and their use as insecticides” (Imperial Chemical Industries PLC, priority 1986, dated 1988).

Usually mortality stands for the percentage killed.

Common to all, as to type: in vivo
Data set [1] concerns Nilaparvata lugens (brown plant hopper - nymphs). Description: Contact test, brown plant hopper - nymphs (NL), Rice plant. As to conditions: 72 h, 3 days, read-out: NL grading of mortality. In a few lines:
(§1)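 Each pest was kept on its food plant or foodstuff and exposed, directly or via the medium, to 100 to 500 ppm Product in water containing 0.1% by weight wetting agent. Kill was recorded over one to seven days.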

The test system of data set [2] is Blattella germanica (cockroach nymphs). Description: Residual test, cockroach nymphs (BG), Plastic pot. Conditions: 72 h, 3 days, read-out: BG grading of mortality. The method in brief:
as §1

In the next data set the test system is carp. Description: Mortality to carp. Conditions: after 48 hours at 10 parts per million. The text has this: The compounds according to formula I and compositions comprising them have shown themselves to be particularly useful in controlling pests of maize and rice such as Chilo (stem borers), Nilaparvata and Nephotettix (plant hoppers) as well as lepidopteran pests of cotton, for example Heliothis spp. This activity is combined with a low level of hazard to aquatic organisms, eg. fish, which renders the compounds particularly suitable for use in aquatic environments, such as for the control of insect pests of paddy rice and for the control of larvae of insect vectors of disease, for example mosquitos. Thus, for example, compound 2 in Table I caused no mortality to carp after 48 hours at a concentration of 10 parts per million. […] (spider mites).

Data set [3] concerns Meloidogyne incognita (Tomato root knot eelworm - larvae). Description: Residual test, Tomato root knot eelworm - larvae (MI), Semi in-vitro. Conditions: 168 h, application rate is half that recorded, 7 days, read-out: MI grading of mortality; for mortality at 125 µg/mL: rate 250 ppm.
The test system of data set [4] is Musca domestica (houseflies - adults). Put plainly: Contact test, houseflies - adults (MD), Cotton wool/sugar. Conditions: 24 h, 1 day, read-out: MD grading of mortality. In a few lines:
as §1

The subject of data set [5] is Diabrotica balteata (rootworm larvae). Description: Residual test, rootworm larvae (DB), Filter paper/maize seed. As to conditions: 72 h, 3 days, read-out: DB grading of mortality. The method in brief:
as §1

In data set [6] the test system is Heliothis virescens (tobacco budworm - larvae). Put plainly: Residual test, tobacco budworm - larvae (HV), Cotton leaf. As to conditions: 72 h, read-out: HV grading of mortality. In a few lines: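 Products applied as acetone solutions diluted in water with 0.1% wetting agent, at 100–500 ppm; pests on host plant or food, with pests and/or medium treated. Mortality or knockdown scored 1–7 days after treatment and graded A (80–100%), B (50–79%) or C (<50%).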

The subject of data set [7] is Chilo partellus (Maize stemborer - larvae). Description: Residual test, Maize stemborer - larvae (CP), Oilseed rape. As to conditions: 72 h, 3 days, read-out: CP grading of mortality. The protocol:
(§2) The activity of the Product was determined using a variety of insect pests. The Product was used in the form of liquid preparations containing from 100 to 500 parts per million (ppm) by weight of the Product. The preparations were made by dissolving the Product in acetone and diluting the solutions with water containing 0.1% by weight of a wetting agent sold under the trade name "SYNPERONIC" NX until the liquid preparations contained the required concentration of the Product. "SYNPERONIC" is a Registered Trade Mark.
(§3) The test procedure adopted with regard to each pest was basically the same and comprised supporting a number of the pests on a medium which was usually a host plant or a foodstuff on which the pests feed, and treating either or both the pests and the medium with the preparations. The mortality of the pests was then assessed at periods usually varying from one to seven days after the treatment.
The results of the tests are given in Table III for each of the Products, at the rate in parts per million given in the second column as a grading of mortality designated as A, B or C wherein A indicates 80-100% mortality or knockdown (70-100% for Meloidogyne incognita), B indicates 50-79% mortality knockdown or knockdown (50-69% for Meloidogyne incognita) and C indicates less than 50% mortality or knockdown.
In Table III the pest organism used is designated by a letter code and the pests species, the support medium or food, and the type and duration of test is given in Table II.
(Maize stemborer - larvae)

For the next data set, the system named is Myzus persicae (aphids). Description: Contact test, aphids (MP), Chinese Cabbage leaf. As to conditions: 72 h, 3 days, read-out: MP grading of mortality. In a few lines: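 Aphids on a host plant and/or the plant itself were treated with 100–500 ppm of product, applied from acetone diluted in water containing 0.1% SYNPERONIC NX wetting agent. Mortality was scored usually one to seven days after treatment.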

The subject of data set [8] is Musca domestica (houseflies - adults). Description: Knockdown test, houseflies - adults (MD/KD), Cotton wool/sugar. Conditions: 4 hours, read-out: MD/KD grading of knockdown. The method in brief: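 Product was dissolved in acetone and diluted with water containing 0.1% wetting agent to 100–500 ppm. The flies and/or their food medium were treated with the preparation. Mortality was scored 1–7 days after treatment, with an additional knockdown assessment for houseflies.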

Data set [9] deals with Spodoptera exigua (lesser army worm - larvae). Put plainly: Residual test, lesser army worm - larvae (SP), Cotton leaf. Conditions: 72 h, 3 days, read-out: SP grading of mortality. In a few lines: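 Compound dissolved in acetone and diluted in water with 0.1% Synperonic NX wetting agent to 100–500 ppm. Pests on host plant or food, with pests and/or medium treated. Mortality assessed 1–7 days after treatment and graded A (80–100%), B (50–79%) or C (<50%).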

The subject of data set [10] is Tetranychus urticae (spider mites - adult). Description: Contact test, spider mites - adult (TUa), French bean leaf. As to conditions: 72 h, 3 days, read-out: TUA grading of mortality. In a few lines: as §1
Another data set concerns Nephotettix cincticeps. Description: Contact test, leaf hopper in place of Nilaparvata lugens (NL**), Rice plant. Conditions: 72 h, 3 days, read-out: NL** grading of mortality (Nephotettix cincticeps). The protocol:
as §2, §3
The results of the tests are given in Table III for each of the Products, at the rate in parts per million given in the second column as a grading of mortality designated as A, B or C wherein A indicates 80-100% mortality or knockdown (70-100% for Meloidogyne incognita), B indicates 50-79% mortality knockdown or knockdown (50-69% for Meloidogyne incognita) and C indicates less than 50% mortality or knockdown. […]

In data set [11] the test system is Tetranychus urticae (spider mites - ova). Description: Contact test, spider mites - ova (TUe), French bean leaf. As to conditions: 144 h, 250 ppm, 6 days, read-out: TUE grading of mortality. The method in brief: as §1

`CCOc1ccc(C(CCCc2cccc(Oc3ccccc3)c2)C(F)(F)F)cc1` (racemic) [Compound 2, 2-(4-ethoxyphenyl)-5-(3-phenoxyphenyl)-1,1,1-trifluoropentane]: the mortality at 500 ppm in data set [1] (500 ppm), in [2], in data set [4], in data set [5], in data set [6] and in data set [7] (500 ppm) was 80 to 100% in each case. The mortality at 500 ppm in the data set with Myzus persicae (aphids) was in the range of 80 to 100%. In addition, the mortality to carp entry with carp is on record as “no mortality”. The mortality at 250 µg/mL in [3] (rate column 500 ppm) was less than 50%. In addition, in data set [8], the pest or weed control at 500 ppm lay in the range of 80 to 100%.
Consider `FC(F)(F)COc1ccc(C(CCCc2cccc(Oc3ccccc3)c2)C(F)(F)F)cc1` (racemic) [Compound 73, 1,1,1-trifluoro-2-[4-(2,2,2-trifluoroethoxy)phenyl]-5-(3-phenoxyphenyl)pentane], for which the mortality at 250 ppm (in [9] (250 ppm); in [2]; in data set [10]; in data set [4]; in the data set with Nephotettix cincticeps (250 ppm); in data set [5]) was 80 to 100% each time. Further, the mortality at 250 ppm (in [6]; with Myzus persicae (aphids)) was 80 to 100% throughout. The pest or weed control at 250 ppm in data set [8] was in the range of 80 to 100%.
With `Fc1ccc(CCC=C(c2ccc(OC(F)(F)F)cc2)C(F)F)cc1Oc1ccccc1` [Compound 26, 1,1-Difluoro-2-(4-trifluoromethoxyphenyl)-5-(4-fluoro-3-phenoxyphenyl)pent-2-ene], the mortality at 500 ppm in data set [9] (500 ppm) lay in the range of 80 to 100%; in data set [2] it was 80 to 100%; in [10] (500 ppm), 80 to 100%; in data set [4], 80 to 100%; in the data set on Nephotettix cincticeps (500 ppm), 80 to 100%; in data set [5], 50 to 79%. Further, the mortality at 500 ppm (in data set [6]; with Myzus persicae (aphids)) was 80 to 100% throughout. In addition, the pest or weed control at 500 ppm in data set [8] lay in the range of 80 to 100%.
For `CCOc1ccc(C(CC=Cc2ccc(F)c(Oc3ccccc3)c2)C(F)(F)F)cc1` (stereo not shown) [Compound 32, 1,1,1-Trifluoro-2-(4-ethoxyphenyl)-5-(4-fluoro-3-phenoxyphenyl)pent-4-ene], the mortality at 250 ppm in data set [1] lay within 80 to 100%; in data set [2], 80 to 100%; in data set [10] it was 50 to 79%; in data set [4] it was 80 to 100%; in [5], 80 to 100%; in [6], 80 to 100%. In addition, the mortality at 250 ppm in [7] is 80 to 100%; in the data set with Myzus persicae (aphids) it was 80 to 100%; in data set [11] it was less than 50%. For the same compound, the mortality at 125 µg/mL in [3] was less than 50%. In addition, the pest or weed control at 250 ppm in data set [8] was in the range of 80 to 100%.
Regarding `CC(C)(C)c1ccc(C(=CCCc2cccc(Oc3ccccc3)c2)C(F)(F)F)cc1` [Compound 6, 2-[4-(2-methylprop-2-yl)phenyl]-5-(3-phenoxyphenyl)-1,1,1-trifluoropent-2-ene], the mortality at 250 ppm in [1] is less than 50%; in data set [2], 80 to 100%; in data set [10] it was less than 50%; in data set [4], less than 50%; in [5] it was less than 50%; in data set [6] it was less than 50%. In addition, the mortality at 250 ppm was 80 to 100% in data set [7], less than 50% in the data set on Myzus persicae (aphids) and less than 50% in data set [11]. Further, the mortality at 125 µg/mL in [3] lay in the range of 70 to 100%. The pest or weed control at 250 ppm in data set [8] was less than 50%.
`CCOc1ccc(C(C/C=C/c2cccc(Oc3ccccc3)c2)C(F)(F)F)cc1` (stereo not shown) [Compound 34, 1,1,1-trifluoro-2-(4-ethoxyphenyl)-5-(3-phenoxyphenyl)pent-4-ene]: the mortality at 250 ppm in data set [1], in data set [2], in [10], in data set [4], in data set [5] and in data set [6] was less than 50% throughout. The mortality at 250 ppm in data set [7] is 80 to 100%; in the data set with Myzus persicae (aphids), 80 to 100%; in data set [11], less than 50%. Further, the mortality at 125 µg/mL in data set [3] was in the range of 70 to 100%. In addition, the pest or weed control at 250 ppm in data set [8] is less than 50%.
